Source: patent US8198352B2, “High purity monoalkyltin compounds and uses thereof” (Arkema France, priority 2008, dated 2012)

Columns and labels:
[1] = dihydropyridine-based compound alone, well known; cited from earlier work
rat, Wistar outbred = assay: Example AA: 14-day oral (diet) dose-range toxicity study; format: in vivo; details: via the diet, 14 consecutive days
Text: The aim of this study is to select appropriate dose-levels for the main study.
Materials and Methods: • Groups: one control group and four test groups (4 males and 4 female per group) administered with different dose levels of the test substance; • Housing: 2 rats/sex/cage, macrolon cages; • Species: rat, Wistar outbred, Charles River Wiga GmbH, 9-10 weeks of age at start; • Carrier: Commercial rodent diet (Rat & Mouse No. 3 Breeding diet, RM3), ad libitum; • Treatment: Administration via the diet during 14 consecutive days; one batch of test diets is prepared shortly before initiation of treatment and stored in a freezer/refrigerator; the feed in the animal feeders is refreshed twice per week; • Clinical observations: general observations (all rats): daily; morbidity is checked again in the afternoon; • Body weight: at least once pretest, twice per week from the start of treatment (for the last time, on the day of scheduled necropsy); • Food consumption: twice weekly per cage (2 rats/cage) from the start of treatment; • Water consumption: visual inspection of the drinking bottles; • Pathology: • macroscopic examination (all rats); • weighing the following organs of all the surviving rats: kidneys, liver, spleen, testes, thymus; • preservation: the weighed organs are preserved in formalin and discarded when the results of the subsequent 90-day study indicate non need for microscopy on tissues from the 14-day study;
(§1) On each day of analysis, calibration solutions are prepared by spiking rodent diet with a stock solution of the organotin compound followed by derivatisation with sodium tetraethyl borate, in order to derivatise the octyltin compounds to the corresponding octyltin-ethyl compounds, with simultaneous extraction of the derivatised compounds into hexane.
(§2) The concentration of the test substance in diet is then determined by GC-MS of the hexane extracts.

wistar rats = assay: Example AB: reproduction/developmental toxicity screening test (OECD 421); format: in vivo, rat
Text: The objective of this study is to assess whether octyltin tris (2-ethylexylmercaptoacetate) causes adverse effects on reproduction and/or development of wistar rats. This study was preceded by a dose-range finding study (see Example AA).
Materials and Methods: • Groups: one control group and three test groups (12 males and 12 female per group) administered with different dose levels of the test substance; • Housing: Pre-mating (PM): 4 rats/sex/cage, macrolon cages; • Mating (M): 1 male and 1 female per cage; • Gestation (G) and lactation: 1 rat/sex/cage, macrolon cages; • Species: rat, Wistar outbred, Charles River Wiga GmbH, 9-10 weeks of age at start; • Carrier: Commercial rodent diet (Rat & Mouse No. 3 Breeding diet, RM3), ad libitum; • Treatment: Administration via the diet during 14 consecutive days premating; during 14 consecutive days mating, gestation and lactation up to 4 days (males are given the test substance in the diet until sacrifice at the end of the mating period); • one or two batches of test diets are prepared shortly before initiation of treatment and stored in a freezer/refrigerator; the feed in the animal feeders is refreshed once per week; • Clinical observations: general clinical observations (all rats): daily; morbidity is checked again in the afternoon; • Body weight: at least once pretest, males and females, premating and mating weekly; • Food consumption: males and females, premating and mating weekly; for female during gestation: GD 0, 7, 14 and 21 during lactation; PN 1 and 4; • Pups: sex, body, weight, number of live and dead pups, clinical signs PN 1 and 4; • Water consumption: visual inspection of the drinking bottles; • Pathology: • macroscopic examination (all rats); • count: number of implantations (uterus) and corpora lutea (ovaria); • weighing the following organs of all the surviving rats: testes (males), epididymes […], thymus; • preservation all animals): testes, epididymes, seminal vesicles, prostate, ovaries, uterus, thymus and organs and tissues showing macroscopic abnormalities; the organs are preserved in formalin and discarded when the results of the OECD 421 study indicate non need for microscopy; • Histopathology: preserved tissues for control and high level only […].
as §1, §2

[2] = rat, 200, 500 and 1250 mg/kg diet

SMILES | result in dynamic thermal stability (colour) test [1] | abnormalities at necropsy (rat, Wistar outbred) | change in body weight and food consumption (rat, Wistar outbred) | clinical abnormalities (rat, Wistar outbred) | effects on organ weights (rat, Wistar outbred) | NOAEL expressed per body weight (wistar rats; female animals) | NOAEL expressed per body weight (wistar rats; male animals) | effects on pre- and post-natal development (wistar rats; [2]) | effects on reproduction organs (wistar rats; [2]) | tolerability of oral administration (wistar rats; [2]) | no averse effect level (NOAEL) for parental toxicity, fertility and development (wistar rats; rat, oral via the diet)
CCCCCCCCCCCCOC(=O)C1=C(C)NC(C)=C(C(=O)OCCCCCCCCCCCC)C1 [DHP, dihydro-1,4-dimethyl-2,6-dicarbododecyloxy-3,5-pyridine] | poor results |  |  |  |  |  |  |  |  |  | 
CCCCCCC[CH2][Sn]([S]CC(=O)OCC(CC)CCCC)([S]CC(=O)OCC(CC)CCCC)[S]CC(=O)OCC(CC)CCCC (centres unmarked) [octyltin tris (2-ethylexylmercaptoacetate)] |  | no abnormalities were observed at necropsy | no change in body weight and food consumption | no clinical abnormalities were observed | no effects were observed on organ weights | ~96 mg/kg body weight/day | approximately 72 mg/kg body weight/day | No effects were observed | No effects were observed | well tolerated at all dose-levels | 1250 mg/kg diet
